In assay [1] the test system is HEK293 human embryonic kidney cell line. In words: MTT antiproliferative assay, HEK293.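 As to all read-outs here: cells grown at 37 °C under humidified 5% CO2, cisplatin run alongside as positive control, each test in triplicate wells.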 Type of assay: cell-based. As to conditions: for Selectivity Index, SI: IC50 on HEK293 divided on IC50 on A2780; for IC50: MTT, 72 h incubation, mean ± SD of three independent experiments.
Description: (§1) The in vitro antiproliferative activity of the synthesized Ru-organometallic compounds and several starting ligands was evaluated against three human cell lines using the MTT assay. We selected a small panel of cell lines that provided insights into the efficacy and potential therapeutic utility of the compounds. The panel includes the A2780 human ovarian carcinoma cell line, which is sensitive to cisplatin, its cisplatin-resistant counterpart, A2780cis, also a non-malignant human embryonic kidney cell line, HEK293. The use of A2780 and A2780cis paired cell lines allowed us to directly assess the ability of the compounds to overcome resistance mechanisms. The inclusion of the HEK293 cell line can give us preliminary indication of selectivity against non-cancerous cells. Cisplatin, a clinically used drug, was used as a positive control in all experiments. All studies were performed in triplicate and repeated in three independent experiments.
(§2) The human A2780 ovarian adenocarcinoma, A2780cis cisplatin resistant ovarian adenocarcinoma, HEK293 human embryonic kidney cell lines were obtained from the European collection of authenticated cell cultures (ECACC; Salisbury, UK). Cells were grown in a RPMI 1640 (Gibco™, Cork, Ireland) cell medium (A2780, A2780cis), or DMEM (Gibco™, Ireland) cell medium (HEK293) supplemented with 10% fetal bovine serum (Gibco™, São Paulo, Brazil). The cells were cultured in an incubator at 37 °C in a humidified 5% CO2 atmosphere and were subcultured two times a week. The antiproliferative activity was studied by MTT assays as published previously [38].
Assay [2] concerns A2780 human ovarian carcinoma cell line. In words: MTT antiproliferative assay, A2780. Particulars: mean ± SD of three independent experiments, read-out: IC50 (72 h) А2780. In kind it is cell-based.
Description: as §1, §2
The subject of assay [3] is A2780cis cisplatin resistant ovarian adenocarcinoma. Nature of the assay: MTT antiproliferative assay, A2780cis.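 As to all read-outs here: antiproliferative MTT assay with 72 h exposure on cisplatin-resistant A2780cis versus parent A2780 cells, cisplatin as positive control, triplicate wells in each of three independent experiments.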 Particulars: for Rf resistance coefficient: IC50 on A2780cis divided on IC50 on A2780; for IC50: MTT, 72 h incubation, mean ± SD of three independent experiments. In kind it is cell-based, human.
Description: as §1, §2
Setting [4] is: Homo sapiens, A2780, 72 h incubation.

Where two headings read alike, the source gives them in different places. A value given as a limit tells only on which side of the number the result lay.

As for `N.N.[Cl][Pt][Cl]` [Cisplatin, reference compound], in assay [1], the “Selectivity Index, SI” value worked out at 8.3 and the midpoint of inhibition, the IC50, lay at 22000 nM. For the same compound, the IC50 in assay [2] (72 h incubation) amounted to 2640 ± 350 nM. In assay [3], this compound returned a Rf resistance coefficient of 5.9.

Take `Fc1ccc(/N=C/c2ccccc2)cc1` [Compound 1b]: the IC50 in assay [1] (Homo sapiens, HEK293) was 21600 nM; in assay [2] (setting [4]) it was over 200000 nM; in assay [3] (Homo sapiens, A2780cis), over 100000 nM.

With `CCOC(=O)c1ccc(/N=C/c2ccccc2)cc1` [Compound 1g], the 50% inhibitory concentration (IC50) in assay [1] (Homo sapiens, HEK293) was 25400 nM; in assay [2] (setting [4]), 42100 nM; in assay [3] (Homo sapiens, A2780cis), over 100000 nM.

`C1=[N+](c2ccccc2)[Ru-4]23([c]4ccccc41)([n+]1ccccc1-c1cccc[n+]12)[n+]1ccccc1-c1cccc[n+]13.F[P-](F)(F)(F)(F)F` [Compound 3a, Bis(2,2′-bipiridine)[N-((phenyl-κC^2)methyliden]aniline-κN]ruthenium(II) hexafluorophosphate]: in assay [1], the “Selectivity Index, SI” value is 1.6 and the IC50 amounted to 53 ± 4 nM. The IC50 in assay [2] (72 h incubation) came to 33 ± 7 nM. In assay [3], this compound returned a Rf resistance coefficient of 0.9 and an IC50 of 30 ± 10 nM.

With `F[P-](F)(F)(F)(F)F.Fc1ccc([N+]2=Cc3cccc[c]3[Ru-4]234([n+]2ccccc2-c2cccc[n+]23)[n+]2ccccc2-c2cccc[n+]24)cc1` [Compound 3b, Bis(2,2′-bipiridine)[N-((phenyl-κC^2)methyliden]-4-fluoroaniline-κN]ruthenium(II) hexafluorophosphate], in assay [1], the “Selectivity Index, SI” value amounted to 1.1 and inhibition was half-maximal at 100 ± 30 nM (IC50). Moreover, the concentration for half-maximal inhibition (IC50) in assay [2] (72 h incubation) was 90 ± 30 nM. Further, in assay [3], the Rf resistance coefficient came out at 2.8 and 250 ± 60 nM corresponded to half-maximal inhibition (IC50).

Turning to `Cc1ccc([N+]2=Cc3cccc[c]3[Ru-4]234([n+]2ccccc2-c2cccc[n+]23)[n+]2ccccc2-c2cccc[n+]24)cc1.F[P-](F)(F)(F)(F)F` [Compound 3c, Bis(2,2′-bipiridine)[N-((phenyl-κC^2)methyliden]-4-methylaniline-κN]ruthenium(II) hexafluorophosphate], in assay [1], the “Selectivity Index, SI” value is 1.0 and 70 ± 10 nM corresponded to half-maximal inhibition (IC50). Moreover, the concentration for half-maximal inhibition (IC50) in assay [2] (72 h incubation) came out at 70 ± 6 nM. Further, in assay [3], the Rf resistance coefficient amounted to 1.7 and the IC50 was 120 ± 10 nM.

On to `CCc1ccc([N+]2=Cc3cccc[c]3[Ru-4]234([n+]2ccccc2-c2cccc[n+]23)[n+]2ccccc2-c2cccc[n+]24)cc1.F[P-](F)(F)(F)(F)F` [Compound 3d, Bis(2,2′-bipiridine)[N-((phenyl-κC^2)methyliden]-4-ethylaniline-κN]ruthenium(II) hexafluorophosphate], for which, in assay [1], the “Selectivity Index, SI” value is 1.8 and the IC50 stood at 80 ± 10 nM. Moreover, the IC50 in assay [2] (72 h incubation) is 45 ± 5 nM. Besides, in assay [3], the Rf resistance coefficient is 3.3 and it took 150 ± 10 nM to reach half-maximal inhibition (IC50).

On to `CC(C)(C)c1ccc([N+]2=Cc3cccc[c]3[Ru-4]234([n+]2ccccc2-c2cccc[n+]23)[n+]2ccccc2-c2cccc[n+]24)cc1.F[P-](F)(F)(F)(F)F` [Compound 3e, Bis(2,2′-bipiridine)[N-((phenyl-κC^2)methyliden]-4-(tert-butyl)aniline-κN]ruthenium(II) hexafluorophosphate], for which, in assay [1], the “Selectivity Index, SI” value is 1.0 and the IC50 was found to be 68 ± 6 nM. Moreover, the IC50 in assay [2] (72 h incubation) was found to be 70 ± 30 nM. Also, in assay [3], the Rf resistance coefficient was found to be 2.4 and the 50% inhibitory concentration (IC50) came to 170 ± 30 nM.

As for `COc1ccc([N+]2=Cc3cccc[c]3[Ru-4]234([n+]2ccccc2-c2cccc[n+]23)[n+]2ccccc2-c2cccc[n+]24)cc1.F[P-](F)(F)(F)(F)F` [Compound 3f, Bis(2,2′-bipiridine)[N-((phenyl-κC^2)methyliden]-4-methoxyaniline-κN]ruthenium(II) hexafluorophosphate], in assay [1], the “Selectivity Index, SI” value is given as 1.0 and the IC50 stood at 64 ± 7 nM. Also, the half-maximal inhibitory concentration (IC50) in assay [2] (72 h incubation) amounted to 65 ± 4 nM. In assay [3], this compound showed a Rf resistance coefficient of 1.8 and an IC50 of 120 ± 40 nM.

For the compound `CCOC(=O)c1ccc([N+]2=Cc3cccc[c]3[Ru-4]234([n+]2ccccc2-c2cccc[n+]23)[n+]2ccccc2-c2cccc[n+]24)cc1.F[P-](F)(F)(F)(F)F` [Compound 3g, Bis(2,2′-bipiridine)[N-((phenyl-κC^2)methyliden]-4-ethoxycarbonylaniline-κN]ruthenium(II) hexafluorophosphate], in assay [1], the “Selectivity Index, SI” value came out at 1.4 and half-maximal inhibition (IC50) was put at 140 ± 20 nM. Further, in assay [2] (72 h incubation), the IC50 turned out to be 100 ± 20 nM. For the same compound, in assay [3], the Rf resistance coefficient is on record as 2.3 and the IC50 came out at 230 ± 20 nM.

Consider `F[P-](F)(F)(F)(F)F.O=[N+]([O-])c1ccc([N+]2=Cc3cccc[c]3[Ru-4]234([n+]2ccccc2-c2cccc[n+]23)[n+]2ccccc2-c2cccc[n+]24)cc1` [Compound 3h, Bis(2,2′-bipiridine)[N-((phenyl-κC^2)methyliden]-4-nitroaniline-κN]ruthenium(II) hexafluorophosphate], for which, in assay [1], the “Selectivity Index, SI” value came to 1.5 and the IC50 was found to be 370 ± 80 nM. In addition, the IC50 in assay [2] (72 h incubation) amounted to 250 ± 30 nM. Also, in assay [3], the Rf resistance coefficient worked out at 3.0 and the IC50 amounted to 760 ± 80 nM.

Consider `FC(F)(F)c1ccc([N+]2=Cc3cccc[c]3[Ru-4]234([n+]2ccccc2-c2cccc[n+]23)[n+]2ccccc2-c2cccc[n+]24)cc1.F[P-](F)(F)(F)(F)F` [Compound 3i, Bis(2,2′-bipiridine)[N-((phenyl-κC^2)methyliden]-4-(trifluoromethyl)aniline-κN]ruthenium(II) hexafluorophosphate], for which, in assay [1], the “Selectivity Index, SI” value was found to be 1.3. Besides, the 50% inhibitory concentration (IC50) came out at 107 ± 8 nM in assay [1], 80 ± 10 nM in assay [2] (72 h incubation) and 240 ± 20 nM in assay [3]. This compound displayed a Rf resistance coefficient in assay [3] of 3.0.

Take `F[P-](F)(F)(F)(F)F.Fc1ccc([N+]2=Cc3scc[c]3[Ru-4]234([n+]2ccccc2-c2cccc[n+]23)[n+]2ccccc2-c2cccc[n+]24)cc1` [Compound 3j, Bis(2,2′-bipiridine)[N-((thiophene-2-yl-κC^2)methyliden]-4-fluoroaniline-κN]ruthenium(II) hexafluorophosphate]: the “Selectivity Index, SI” value in assay [1] is listed as 1.4. Besides, the IC50 in assay [1] was 60 ± 10 nM; in assay [2] (72 h incubation), 43 ± 3 nM; in assay [3], 91 ± 9 nM. Also, in assay [3], the Rf resistance coefficient turned out to be 2.1.

`Cc1ccc([N+]2=Cc3scc[c]3[Ru-4]234([n+]2ccccc2-c2cccc[n+]23)[n+]2ccccc2-c2cccc[n+]24)cc1.F[P-](F)(F)(F)(F)F` [Compound 3k, Bis(2,2′-bipiridine)[N-((thiophene-2-yl-κC^2)methyliden]-4-methylaniline-κN]ruthenium(II) hexafluorophosphate]: in assay [1], the “Selectivity Index, SI” value was 2.3 and the IC50 was 70 ± 30 nM. Also, the half-inhibitory concentration (IC50) in assay [2] (72 h incubation) worked out at 30 ± 2 nM. In assay [3], the Rf resistance coefficient is 0.3 and half-maximal inhibition (IC50) required 10 ± 0.4 nM.

Regarding `COc1ccc([N+]2=Cc3scc[c]3[Ru-4]234([n+]2ccccc2-c2cccc[n+]23)[n+]2ccccc2-c2cccc[n+]24)cc1.F[P-](F)(F)(F)(F)F` [Compound 3l, Bis(2,2′-bipiridine)[N-((thiophene-2-yl-κC^2)methyliden]-4-methoxyaniline-κN]ruthenium(II) hexafluorophosphate], in assay [1], the “Selectivity Index, SI” value amounted to 1.0 and the IC50 was determined as 40 ± 10 nM. Besides, the half-maximal inhibitory concentration (IC50) in assay [2] (72 h incubation) was 39 ± 3 nM. In assay [3], this compound registered a Rf resistance coefficient of 1.0 and a half-inhibitory concentration (IC50) of 39 ± 10 nM.

`CCOC(=O)c1ccc([N+]2=Cc3scc[c]3[Ru-4]234([n+]2ccccc2-c2cccc[n+]23)[n+]2ccccc2-c2cccc[n+]24)cc1.F[P-](F)(F)(F)(F)F` [Compound 3m, Bis(2,2′-bipiridine)[N-((thiophene-2-yl-κC^2)methyliden]-4-ethoxycarbonylaniline-κN]ruthenium(II) hexafluorophosphate]: in assay [1], the “Selectivity Index, SI” value was 2.5 and inhibition was half-maximal at 140 ± 10 nM (IC50). The 50% inhibitory concentration (IC50) in assay [2] (72 h incubation) turned out to be 57 ± 20 nM. In assay [3], the Rf resistance coefficient came to 1.5 and the IC50 came out at 84 ± 12 nM.

`F[P-](F)(F)(F)(F)F.O=[N+]([O-])c1ccc([N+]2=Cc3scc[c]3[Ru-4]234([n+]2ccccc2-c2cccc[n+]23)[n+]2ccccc2-c2cccc[n+]24)cc1` [Compound 3n, Bis(2,2′-bipiridine)[N-((thiophene-2-yl-κC^2)methyliden]-4-nitroaniline-κN]ruthenium(II) hexafluorophosphate]: in assay [1], the “Selectivity Index, SI” value is 2.0 and half-maximal inhibition (IC50) required 530 ± 30 nM. Also, the IC50 in assay [2] (72 h incubation) amounted to 270 ± 4 nM. In assay [3], this compound had a Rf resistance coefficient of 3.6 and a half-maximal inhibitory concentration (IC50) of 960 ± 100 nM.

Regarding `FC(F)(F)c1ccc([N+]2=Cc3scc[c]3[Ru-4]234([n+]2ccccc2-c2cccc[n+]23)[n+]2ccccc2-c2cccc[n+]24)cc1.F[P-](F)(F)(F)(F)F` [Compound 3o, Bis(2,2′-bipiridine)[N-((thiophene-2-yl-κC^2)methyliden]-4-(trifluoromethyl)aniline-κN]ruthenium(II) hexafluorophosphate], the “Selectivity Index, SI” value in assay [1] is 1.7. For the same compound, the IC50 turned out to be 160 ± 30 nM in assay [1], 96 ± 3 nM in assay [2] (72 h incubation) and 150 ± 5 nM in assay [3].

The values are drawn from article PMC12844335, “Cycloruthenated Imines: A Step into the Nanomolar Region” (Molecules, 2026).
